Source: patent publication US20240270821A1, “GIP/GLP1/GCG TRI-RECEPTOR AGONISTS AND USES THEREOF” (priority 2023, published 2024)
Like-named read-outs stand apart in the source and are kept apart here. Starred links: 1 amine or outer side, 2 acyl side, 3 side chain; linkers in the order of their positions; H or OH if unused. Non-standard residues stand in square brackets, D forms with d. Groups on a side chain read outwards from the residue. *: point of attachment. C18 diacid = O=C(O)CCCCCCCCCCCCCCCCC(=O)*; γGlu = O=C(O)[C@H](CCC(=O)[*:2])N[*:1]; αMe4Pal = C[C@](N)(Cc1ccncc1)C(=O)O; 4Pal = N[C@@H](Cc1ccncc1)C(=O)O; αMeL = CC(C)C[C@](C)(N)C(=O)O; Orn = NCCC[C@H](N)C(=O)O; Dab = NCC[C@H](N)C(=O)O; AEEA = NCCOCCOCC(=O)O; Aib = CC(C)(N)C(=O)O

How the values were obtained:
Format in all cases: cell-based
human GcgR = human GcgR (Homo sapiens, UniProt P47871); test: Functional cAMP activity in the presence of 1% HSA; details: read-out: cAMP Rel EC50, hGcgR
hGcgR = hGcgR (Homo sapiens, UniProt P47871); test: Functional cAMP activation in the presence of 0.1% casein (no HSA); details: in the presence of 0.1% casein (no HSA); geometric mean; read-out: Relative cAMP EC50, hGcgR;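 also: intracellular cAMP rise after 30 min at 37 °C, read by HTRF against a cAMP standard curve, scaled from buffer only (0%) to maximal control ligand response (100%)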
hGIPR [1] = biological target: T1, hGIPR (Homo sapiens, UniProt P48546); test: Functional cAMP activity in the presence of 1% HSA; details: read-out: cAMP Rel EC50, hGIPR
T1 sequence (P48546 22-466): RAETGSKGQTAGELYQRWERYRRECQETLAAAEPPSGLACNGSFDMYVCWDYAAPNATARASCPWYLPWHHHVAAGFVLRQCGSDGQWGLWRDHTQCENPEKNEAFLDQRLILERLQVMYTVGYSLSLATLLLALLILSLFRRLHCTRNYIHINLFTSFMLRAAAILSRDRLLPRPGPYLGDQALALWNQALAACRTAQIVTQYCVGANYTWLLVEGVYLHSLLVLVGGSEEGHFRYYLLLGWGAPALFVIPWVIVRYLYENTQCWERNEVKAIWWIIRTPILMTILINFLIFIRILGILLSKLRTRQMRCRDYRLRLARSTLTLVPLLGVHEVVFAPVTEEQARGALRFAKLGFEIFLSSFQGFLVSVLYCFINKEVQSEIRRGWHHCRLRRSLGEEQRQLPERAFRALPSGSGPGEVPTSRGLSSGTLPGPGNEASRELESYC

hGIPR [2] = biological target: T1, hGIPR; test: Functional cAMP activation in the presence of 0.1% casein (no HSA); details: in the presence of 0.1% casein (no HSA); geometric mean; read-out: Relative cAMP EC50, hGIPR;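 as to Relative cAMP EC50, hGIPR: intracellular cAMP rise after 30 min at 37 °C read by HTRF against a standard curve, scaled between buffer alone (0%) and top control ligand concentration (100%), four-parameter fit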;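 as to Relative cAMP EC50, hGLP-1R: intracellular cAMP rise after 30 min at 37 °C read by HTRF, normalized between buffer only (0%) and maximal control ligand (100%), four-parameter variable-slope fit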
hGLP-1R = hGLP-1R (Homo sapiens, UniProt P43220); test: as above; details: in the presence of 0.1% casein (no HSA); geometric mean; read-out: Relative cAMP EC50, hGLP-1R;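 also: intracellular cAMP rise after 30 min at 37 °C read by HTRF, normalized between buffer only (0%) and maximal control ligand (100%), four-parameter variable-slope fit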
[3] = HEK-293 clonal cell line, in the presence of 1% HSA, geometric mean of relative EC50

Sequence of human GcgR (P47871 26-477): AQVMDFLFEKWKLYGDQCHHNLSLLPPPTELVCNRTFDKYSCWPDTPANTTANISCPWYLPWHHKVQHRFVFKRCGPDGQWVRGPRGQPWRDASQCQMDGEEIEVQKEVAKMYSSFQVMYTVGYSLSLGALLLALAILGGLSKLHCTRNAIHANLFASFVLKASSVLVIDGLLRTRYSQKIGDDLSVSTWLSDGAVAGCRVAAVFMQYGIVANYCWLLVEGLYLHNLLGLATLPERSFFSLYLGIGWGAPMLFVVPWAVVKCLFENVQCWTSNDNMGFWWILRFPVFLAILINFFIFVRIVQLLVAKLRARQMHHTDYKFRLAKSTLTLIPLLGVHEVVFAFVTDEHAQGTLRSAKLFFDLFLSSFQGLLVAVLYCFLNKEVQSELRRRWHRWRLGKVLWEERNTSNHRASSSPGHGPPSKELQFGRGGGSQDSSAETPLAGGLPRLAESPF
Sequence of hGcgR (P47871 26-477): as above
Sequence of hGLP-1R (P43220 24-463): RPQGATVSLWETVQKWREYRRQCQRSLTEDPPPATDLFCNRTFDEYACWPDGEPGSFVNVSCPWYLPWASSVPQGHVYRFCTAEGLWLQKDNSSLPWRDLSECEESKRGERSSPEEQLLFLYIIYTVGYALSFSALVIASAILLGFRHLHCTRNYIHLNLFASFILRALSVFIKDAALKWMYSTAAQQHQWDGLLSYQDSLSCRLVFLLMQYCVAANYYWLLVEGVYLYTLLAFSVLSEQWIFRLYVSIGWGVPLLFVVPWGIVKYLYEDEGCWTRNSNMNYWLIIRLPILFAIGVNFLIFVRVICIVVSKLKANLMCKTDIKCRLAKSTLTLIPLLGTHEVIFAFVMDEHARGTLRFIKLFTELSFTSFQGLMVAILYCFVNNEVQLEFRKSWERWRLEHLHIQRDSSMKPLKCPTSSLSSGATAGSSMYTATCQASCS

| Compound | EC50 (human GcgR) [nM] | EC50 (hGcgR) [nM] | EC50 (hGIPR [1]; [3]) [nM] | EC50 (human GcgR; [3]) [nM] | EC50 (hGIPR [2]) [nM] | EC50 (hGLP-1R) [nM] | EC50 (hGIPR [1]) [nM] |
| --- | --- | --- | --- | --- | --- | --- | --- |
| CC[C@H](C)[C@H](NC(=O)[C@H](CO)NC(=O)[C@H](Cc1ccc(O)cc1)NC(=O)[C@H](CC(=O)O)NC(=O)[C@H](CO)NC(=O)[C@@H](NC(=O)[C@H](Cc1ccccc1)NC(=O)[C@@H](NC(=O)CNC(=O)[C@H](CCC(=O)O)NC(=O)[C@H](C)NC(=O)[C@@H](N)Cc1ccc(O)cc1)[C@@H](C)O)[C@@H](C)CC)C(=O)N[C@@H](C)C(=O)N[C@@H](CCSC)C(=O)N[C@@H](CC(=O)O)C(=O)N[C@@H](CCCCN)C(=O)N[C@H](C(=O)N[C@@H](Cc1c[nH]cn1)C(=O)N[C@@H](CCC(N)=O)C(=O)N[C@@H](CCC(N)=O)C(=O)N[C@@H](CC(=O)O)C(=O)N[C@@H](Cc1ccccc1)C(=O)N[C@H](C(=O)N[C@@H](CC(N)=O)C(=O)N[C@@H](Cc1c[nH]c2ccccc12)C(=O)N[C@@H](CC(C)C)C(=O)N[C@@H](CC(C)C)C(=O)N[C@@H](C)C(=O)N[C@@H](CCC(N)=O)C(=O)N[C@@H](CCCCN)C(=O)NCC(=O)N[C@@H](CCCCN)C(=O)N[C@@H](CCCCN)C(=O)N[C@@H](CC(N)=O)C(=O)N[C@@H](CC(=O)O)C(=O)N[C@@H](Cc1c[nH]c2ccccc12)C(=O)N[C@@H](CCCCN)C(=O)N[C@@H](Cc1c[nH]cn1)C(=O)N[C@@H](CC(N)=O)C(=O)N[C@H](C(=O)N[C@H](C(=O)N[C@@H](CCC(N)=O)C(N)=O)[C@@H](C)O)[C@@H](C)CC)C(C)C)[C@@H](C)CC [hGIP 1-42 amide] | > 9950 | > 99.5 | – | – | – | – | – |
| H-Y[Aib]QGTFTSDFS[Orn][αMeL]LDKK([γGlu-γGlu-C18 diacid])AQ[Aib]AFIEYLLAGGPSSGAPPPEGSEE-NH2 [Example 1051] | – | 10.3 | 32.6 | 1800 | 0.172 | 8.3 | – |
| H-Y[Aib]QGTFTSDFS[Orn][αMeL]LD[Orn]K([γGlu-γGlu-C18 diacid])AQ[Aib]AFIE[αMe4Pal]LLAGGPSSGAPPPEGSEE-NH2 [Example 1053] | – | 10.4 | 19.3 | 3470 | 0.123 | 6.2 | – |
| H-Y[Aib]QGTFTSD[4Pal]SQ[αMeL]LD[Orn]K([Glu-γGlu-C18 diacid])AQ[αMe4Pal]AFIEYLLAGGPSSGAPPPSGSEE-NH2 [Example 1057] | 2780 | 5.29 | – | – | 0.128 | 5.16 | 25.9 |
| H-Y[Aib]QGTFTSD[4Pal]SQ[αMeL]LD[Orn]K([γGlu-γGlu-C18 diacid])AQ[αMe4Pal]AFIEYLLAGGPSSGAPPPSGSEE-NH2 [Example 1056] | 1650 | 3.98 | – | – | 0.0929 | 4.25 | 29.6 |
| H-Y[Aib]QGTFTSD[4Pal]SR[αMeL]LDKK([AEEA-γGlu-C18 diacid])AQ[Aib]AFIEYLIE[Aib]SPSSGAPPPSGS-NH2 [Example 807] | – | 12.4 | – | – | 0.108 | 1.72 | – |
| H-Y[Aib]QGTFTSD[4Pal]S[Dab][αMeL]LDKK([AEEA-γGlu-C18 diacid])AQ[Aib]AFIEYLIE[Aib]GPSSGAPPPSGS-NH2 [Example 803] | – | 9.75 | – | – | 0.232 | 2.02 | – |
| H-Y[Aib]QGTFTSD[4Pal]S[Dab][αMeL]LD[Orn]K([γGlu-γGlu-C18 diacid])AQ[αMe4Pal]AFIE[αMe4Pal]LLAGGPSSGAPPPEGSEE-NH2 [Example 1055] | – | 1.88 | 78.9 | 450 | 0.366 | 14.6 | – |
| H-Y[Aib]QGTFTSD[4Pal]S[Orn][αMeL]LDKK([Glu-γGlu-C18 diacid])AQ[αMe4Pal]AFIEYLIAGGPSSGAPPPSGSEE-NH2 [Example 1060] | 4900 | 9.08 | – | – | 0.223 | 2.85 | 44.7 |
| H-Y[Aib]QGTFTSD[4Pal]S[Orn][αMeL]LD[Orn]K([Glu-Glu-γGlu-C18 diacid])AQ[αMe4Pal]AFIEYLIAGGPSSGAPPPSGSEE-NH2 [Example 1062] | 2380 | 8.77 | – | – | 0.726 | 7.75 | 67.5 |
| H-Y[Aib]QGTFTSD[4Pal]S[Orn][αMeL]LD[Orn]K([Glu-γGlu-C18 diacid])AQ[αMe4Pal]AFIEYLIAGGPSSGAPPPSGSEE-NH2 [Example 1061] | 2910 | 17.3 | – | – | 0.656 | 4.56 | 55.6 |
